Measured values reported in patent publication US7745575B1 (Cellpep Pharma Inc., priority 2004, dated 2010).
Bridge positions count the residues as written; N and C are the ends. Peptide text beside a SMILES is read from it.

Assay: toxicity in vivo, LD50 after intracerebroventricular injection
Conditions: mouse, icv or intrathecal, 20 g C57/BL6 mice
Procedure: Groups of six to eight mice per dose were injected with 5 μl peptide solution containing 0.1% (w/v) bovine serum albumin and 0.9% (w/v) NaCl. The LD50 values are set out in Table 5.

**Q.** Which LD50 does the source give for `CC[C@H](C)[C@@H]1NC(=O)[C@H](CCCCN)NC(=O)[C@@H](NC(=O)[C@H](CCCCN)NC(=O)[C@@H](NC(=O)[C@@H](N)CC(N)=O)C(C)C)CSSC[C@@H]2NC(=O)[C@H](CCCCN)NC(=O)CNC(=O)[C@H](Cc3ccccc3)NC(=O)[C@H](CCCNC(=N)N)NC(=O)[C@H](CCSC)NC(=O)CNC(=O)[C@H](C)NC(=O)[C@H](CC(=O)O)NC(=O)[C@H](CCCCN)NC(=O)[C@@H]3CSSC[C@@H](C(=O)N[C@H](C(=O)N4CCC[C@H]4C(=O)N[C@@H](CCCCN)C(=O)O)[C@@H](C)O)NC(=O)[C@H](Cc4c[nH]cn4)NC(=O)[C@H](CSSC[C@H](NC(=O)[C@H](CCC(N)=O)NC(=O)[C@H](CCCNC(=N)N)NC(=O)[C@H](CO)NC1=O)C(=O)N[C@@H](CC(C)C)C(=O)N[C@@H](CCCCN)C(=O)N1CCC[C@H]1C(=O)N3)NC(=O)[C@H](CCCCN)NC(=O)CNC(=O)[C@H](CC(N)=O)NC(=O)[C@H](CCSC)NC2=O` (H-NVKCKISRQCLKPCKDAGMRFGKCMNGKCHCTPK-OH; disulfide 4-24, 10-29, 14-31) here?
**A.** The LD50 was 5 µg/kg.

**Q.** For `CC[C@H](C)[C@@H]1NC(=O)[C@H](CCCCN)NC(=O)[C@@H](NC(=O)[C@H](CCCCN)NC(=O)[C@@H](NC(=O)[C@H](CC(N)=O)NC(=O)[C@@H](NC(=O)[C@@H](NC(=O)[C@@H](N)[C@@H](C)O)[C@@H](C)CC)[C@@H](C)CC)C(C)C)CSSC[C@@H]2NC(=O)[C@H](CCCCN)NC(=O)CNC(=O)[C@H](Cc3ccccc3)NC(=O)[C@H](CCCNC(=N)N)NC(=O)[C@H](CCSC)NC(=O)CNC(=O)[C@H](C)NC(=O)[C@H](CC(=O)O)NC(=O)[C@H](CCCCN)NC(=O)[C@@H]3CSSC[C@@H](C(=O)N[C@H](C(=O)N4CCC[C@H]4C(=O)N[C@@H](CCCCN)C(=O)O)[C@@H](C)O)NC(=O)[C@H](Cc4c[nH]cn4)NC(=O)[C@H](CSSC[C@H](NC(=O)[C@H](CCC(N)=O)NC(=O)[C@H](CCCNC(=N)N)NC(=O)[C@H](CO)NC1=O)C(=O)N[C@@H](CC(C)C)C(=O)N[C@@H](CCCCN)C(=O)N1CCC[C@H]1C(=O)N3)NC(=O)[C@H](CCCCN)NC(=O)CNC(=O)[C@H](CC(N)=O)NC(=O)[C@H](CCSC)NC2=O` (H-TIINVKCKISRQCLKPCKDAGMRFGKCMNGKCHCTPK-OH; disulfide 7-27, 13-32, 17-34), which LD50 is on record?
**A.** Its LD50 is 3 µg/kg.

**Q.** For `CC[C@H](C)[C@@H]1NC(=O)[C@H](CCCCN)NC(=O)[C@@H](NC(=O)[C@H](CCCCN)NC(=O)[C@@H](NC(=O)[C@H](CC(N)=O)NC(=O)[C@@H](NC(=O)[C@@H](NC(=O)[C@@H](NC(=O)CN)C(C)C)[C@@H](C)CC)[C@@H](C)CC)C(C)C)CSSC[C@@H]2NC(=O)[C@H](CCCCN)NC(=O)CNC(=O)[C@H](Cc3ccccc3)NC(=O)[C@H](CCCNC(=N)N)NC(=O)[C@H](CCSC)NC(=O)CNC(=O)[C@H](C)NC(=O)[C@H](CC(=O)O)NC(=O)[C@H](CCCCN)NC(=O)[C@@H]3CSSC[C@@H](C(=O)N[C@H](C(=O)N4CCC[C@H]4C(=O)N[C@@H](CCCCN)C(=O)O)[C@@H](C)O)NC(=O)[C@H](Cc4c[nH]cn4)NC(=O)[C@H](CSSC[C@H](NC(=O)[C@H](CCC(N)=O)NC(=O)[C@H](CCCNC(=N)N)NC(=O)[C@H](CO)NC1=O)C(=O)N[C@@H](CC(C)C)C(=O)N[C@@H](CCCCN)C(=O)N1CCC[C@H]1C(=O)N3)NC(=O)[C@H](CCCCN)NC(=O)[C@H](CCCNC(=N)N)NC(=O)[C@H](CC(N)=O)NC(=O)[C@H](CCSC)NC2=O`, which LD50 is on record?
**A.** The LD50 was 5 µg/kg.
